Laboratory results taken from patent publication US4864023A, “Pyrido(3,2,1-IJ)-1,3,4-benzoxadiazine derivatives” (priority 1988, dated 1989).
Values after ≈ are worked out from the molar mass of the structure shown. Where two headings read alike, the source gives them in different places.

What was measured:
Assay in all cases: in vitro antibacterial activity, standard agar dilution method
Format in all cases: cell-based
[1] = test system: Staphylococcus aureus FDA 209P JC-1; details: FDA209P, read-out: minimum inhibitory concentration (MIC)
[2] = test system: Klebsiella pneumoniae FDA PCI 602; details: FDAPCI602, aerobic, read-out: minimum inhibitory concentration (MIC)
[3] = test system: Staphylococcus epidermidis IFO 12993; details: IFO12993, aerobic, read-out: minimum inhibitory concentration (MIC)
[4] = test system: Enterococcus faecalis NR 2943; details: NR2943, aerobic, read-out: minimum inhibitory concentration (MIC)
[5] = test system: Proteus rettgeri ATCC 14505; details: Providencia rettgeri, ATCC14505, aerobic, read-out: minimum inhibitory concentration (MIC)
[6] = test system: Staphylococcus aureus Smith; details: read-out: minimum inhibitory concentration (MIC)
[7] = test system: Bordetella bronchiseptica ATCC 4617; details: ATCC4617, aerobic, read-out: minimum inhibitory concentration (MIC)
[8] = test system: Salmonella typhimurium IFO 12529; details: Salmonella enterica, aerobic, read-out: minimum inhibitory concentration (MIC)
[9] = test system: Proteus vulgaris OX19 ATCC 6898; details: ATCC6898, aerobic, read-out: minimum inhibitory concentration (MIC)
[10] = test system: Staphylococcus epidermidis NR 2942; details: NR2942, aerobic, read-out: minimum inhibitory concentration (MIC)
[11] = test system: Pseudomonas aeruginosa A3; details: aerobic, read-out: minimum inhibitory concentration (MIC)
[12] = test system: Serratia marcescens IFO 12648; details: IFO12648, aerobic, read-out: minimum inhibitory concentration (MIC)
[13] = test system: Pseudomonas aeruginosa NR 2950; details: NR2950, aerobic, read-out: minimum inhibitory concentration (MIC)
[14] = test system: Staphylococcus aureus NR 2855
[15] = test system: Pseudomonas stutzeri IFO 12695; details: Stutzerimonas stutzeri, IFO12695, aerobic, read-out: minimum inhibitory concentration (MIC)
[16] = test system: Bacillus subtilis PCI 219; details: PCI219, aerobic, read-out: minimum inhibitory concentration (MIC)
[17] = test system: Alcaligenes faecalis IFO 13111; details: IFO13111, aerobic, read-out: minimum inhibitory concentration (MIC)
[18] = test system: Escherichia coli NIHJ JC-2; details: NIHJJC2, aerobic, read-out: minimum inhibitory concentration (MIC)
[19] = test system: Escherichia coli NR 2630; details: NR2630; Escherichia coli NR 2630; aerobic; agar dilution; read-out: minimum inhibitory concentration (MIC)
[20] = test system: Enterobacter cloacae NR 2946; details: NR2946, aerobic, read-out: minimum inhibitory concentration (MIC)
[21] = test system: Citrobacter freundii IFO 12681; details: IFO12681, aerobic, read-out: minimum inhibitory concentration (MIC)
[22] = test system: Enterobacter aerogenes NR 2945; details: Klebsiella aerogenes, NR2945, aerobic, read-out: minimum inhibitory concentration (MIC)
[23] = Staphylococcus aureus FDA 209P JC-1, aerobic, agar dilution
[24] = Staphylococcus aureus Smith, aerobic, agar dilution
[25] = NR2855, Staphylococcus aureus NR 2855, aerobic, agar dilution, read-out: minimum inhibitory concentration (MIC)

Row | Structure (SMILES) | MIC [2] | MIC [3] | MIC [4] | MIC [5] | MIC [7] | MIC [8] | MIC [9] | MIC [10] | MIC [11] | MIC [12] | MIC [13] | MIC [14, 25] | MIC [15] | MIC [16] | MIC [17] | MIC [18] | MIC [19] | MIC [20] | MIC [21] | MIC [22] | other results
1 | COC1CCN(c2c(F)cc3c(=O)c(C(=O)O)cn4c3c2OCN4C)CC1 [Example 38, 9-fluoro-10-(4-methoxy-1-piperidyl)-3-methyl-7-oxo-2,3-dihydro-7H-pyrido[3,2,1-ij]-1,3,4-benzoxadiazine-6-carboxylic acid] | 25 mg/L (≈ 66.2 µM) | 0.39 mg/L (≈ 1.03 µM) | 12.5 mg/L (≈ 33.1 µM) | 25 mg/L (≈ 66.2 µM) | 6.25 mg/L (≈ 16.6 µM) | 6.25 mg/L (≈ 16.6 µM) | 3.13 mg/L (≈ 8.29 µM) | 0.39 mg/L (≈ 1.03 µM) | 25 mg/L (≈ 66.2 µM) | 12.5 mg/L (≈ 33.1 µM) | 50 mg/L (≈ 132 µM) | 0.2 mg/L (≈ 0.53 µM) | 6.25 mg/L (≈ 16.6 µM) | ≤ 0.0008 mg/L | 6.25 mg/L (≈ 16.6 µM) | 6.25 mg/L (≈ 16.6 µM) | 0.39 mg/L (≈ 1.03 µM) | 6.25 mg/L (≈ 16.6 µM) | 6.25 mg/L (≈ 16.6 µM) | 3.13 mg/L (≈ 8.29 µM) | MIC [1, 23]: 0.39 mg/L (≈ 1.03 µM); MIC [6, 24]: 0.1 mg/L (≈ 0.265 µM)
2 | CCN1CCN(c2c(F)cc3c(=O)c(C(=O)O)cn4c3c2OCN4C)CC1 [Example 42] | 0.39 mg/L (≈ 1.04 µM) | 0.39 mg/L (≈ 1.04 µM) | 6.25 mg/L (≈ 16.6 µM) | 0.39 mg/L (≈ 1.04 µM) | 0.39 mg/L (≈ 1.04 µM) | 0.025 mg/L (≈ 0.0664 µM) | 0.025 mg/L (≈ 0.0664 µM) | 0.39 mg/L (≈ 1.04 µM) | 0.39 mg/L (≈ 1.04 µM) | 0.1 mg/L (≈ 0.266 µM) | 3.13 mg/L (≈ 8.32 µM) | 0.39 mg/L (≈ 1.04 µM) | 0.1 mg/L (≈ 0.266 µM) | 0.05 mg/L (≈ 0.133 µM) | 1.56 mg/L (≈ 4.14 µM) | 0.05 mg/L (≈ 0.133 µM) | 0.025 mg/L (≈ 0.0664 µM) | 0.05 mg/L (≈ 0.133 µM) | 0.05 mg/L (≈ 0.133 µM) | 0.025 mg/L (≈ 0.0664 µM) | MIC [1, 23]: 0.39 mg/L (≈ 1.04 µM); MIC [6, 24]: 0.39 mg/L (≈ 1.04 µM)
3 | CN1COc2c(N3CCN(CCF)CC3)c(F)cc3c(=O)c(C(=O)O)cn1c23 [Example 44] | 0.39 mg/L (≈ 0.989 µM) | 0.78 mg/L (≈ 1.98 µM) | 12.5 mg/L (≈ 31.7 µM) | 1.56 mg/L (≈ 3.96 µM) | 0.39 mg/L (≈ 0.989 µM) | 0.2 mg/L (≈ 0.507 µM) | 0.1 mg/L (≈ 0.254 µM) | 0.39 mg/L (≈ 0.989 µM) | 0.78 mg/L (≈ 1.98 µM) | 0.39 mg/L (≈ 0.989 µM) | 6.25 mg/L (≈ 15.8 µM) | 0.39 mg/L (≈ 0.989 µM) | 0.2 mg/L (≈ 0.507 µM) | 0.05 mg/L (≈ 0.127 µM) | 1.56 mg/L (≈ 3.96 µM) | 0.2 mg/L (≈ 0.507 µM) | 0.05 mg/L (≈ 0.127 µM) | 0.2 mg/L (≈ 0.507 µM) | 0.2 mg/L (≈ 0.507 µM) | 0.1 mg/L (≈ 0.254 µM) | MIC [1, 23]: 0.78 mg/L (≈ 1.98 µM); MIC [6, 24]: 0.39 mg/L (≈ 0.989 µM)
4 | CN1COc2c(N3CCN(CC(=O)O)CC3)c(F)cc3c(=O)c(C(=O)O)cn1c23 [Example 45] | 0.39 mg/L (≈ 0.96 µM) | 3.13 mg/L (≈ 7.7 µM) | 50 mg/L (≈ 123 µM) | 0.78 mg/L (≈ 1.92 µM) | 12.5 mg/L (≈ 30.8 µM) | 0.1 mg/L (≈ 0.246 µM) | 0.1 mg/L (≈ 0.246 µM) | 3.13 mg/L (≈ 7.7 µM) | 0.78 mg/L (≈ 1.92 µM) | 0.78 mg/L (≈ 1.92 µM) | 6.25 mg/L (≈ 15.4 µM) | 3.13 mg/L (≈ 7.7 µM) | 0.05 mg/L (≈ 0.123 µM) | 0.39 mg/L (≈ 0.96 µM) | 12.5 mg/L (≈ 30.8 µM) | 0.2 mg/L (≈ 0.492 µM) | 0.1 mg/L (≈ 0.246 µM) | 0.2 mg/L (≈ 0.492 µM) | 0.1 mg/L (≈ 0.246 µM) | 0.05 mg/L (≈ 0.123 µM) | MIC [1, 23]: 1.56 mg/L (≈ 3.84 µM); MIC [6, 24]: 0.78 mg/L (≈ 1.92 µM)
5 | CCN(C)CC1CCN(c2c(F)cc3c(=O)c(C(=O)O)cn4c3c2OCN4C)C1 (stereo not shown) [Example 48, 10-[3-[(ethylmethylamino)methyl]-1-pyrrolidinyl]-9-fluoro-3-methyl-7-oxo-2,3-dihydro-7H-pyrido-[3,2,1-ij]-1,3,4-benzoxadiazine-6-carboxylic acid] | 1.56 mg/L (≈ 3.86 µM) | 0.39 mg/L (≈ 0.964 µM) | 6.25 mg/L (≈ 15.5 µM) | 3.13 mg/L (≈ 7.74 µM) | 6.25 mg/L (≈ 15.5 µM) | 0.39 mg/L (≈ 0.964 µM) | 0.39 mg/L (≈ 0.964 µM) | 0.78 mg/L (≈ 1.93 µM) | 3.13 mg/L (≈ 7.74 µM) | 1.56 mg/L (≈ 3.86 µM) | 50 mg/L (≈ 124 µM) |  | 1.56 mg/L (≈ 3.86 µM) | 0.05 mg/L (≈ 0.124 µM) | 3.13 mg/L (≈ 7.74 µM) | 0.39 mg/L (≈ 0.964 µM) | 0.1 mg/L (≈ 0.247 µM) | 0.39 mg/L (≈ 0.964 µM) | 0.39 mg/L (≈ 0.964 µM) | 0.39 mg/L (≈ 0.964 µM) | MIC ([1]; Staphylococcus aureus): 0.39 mg/L (≈ 0.964 µM); MIC [6, 24]: 0.2 mg/L (≈ 0.495 µM); MIC ([14]; Staphylococcus aureus, NR2855, read-out: minimum inhibitory concentration (MIC)): 0.39 mg/L (≈ 0.964 µM)
6 | CC(=O)CCN1CCN(c2c(F)cc3c(=O)c(C(=O)O)cn4c3c2OCN4C)CC1 [Example 51, 9-fluoro-3-methyl-7-oxo-10-[4-(3-oxo-n-butyl)-1-piperazinyl]-2,3-dihydro-7H-pyrido[3,2,1-ij]-1,3,4-benzoxadiazine-6-carboxylic acid] | 0.2 mg/L (≈ 0.478 µM) | 0.78 mg/L (≈ 1.86 µM) | 12.5 mg/L (≈ 29.9 µM) | 0.2 mg/L (≈ 0.478 µM) | 1.56 mg/L (≈ 3.73 µM) | 0.025 mg/L (≈ 0.0597 µM) | 0.025 mg/L (≈ 0.0597 µM) | 0.78 mg/L (≈ 1.86 µM) | 0.1 mg/L (≈ 0.239 µM) | 0.1 mg/L (≈ 0.239 µM) | 1.56 mg/L (≈ 3.73 µM) | 1.56 mg/L (≈ 3.73 µM) | 0.05 mg/L (≈ 0.119 µM) | 0.1 mg/L (≈ 0.239 µM) | 3.13 mg/L (≈ 7.48 µM) | 0.1 mg/L (≈ 0.239 µM) | 0.025 mg/L (≈ 0.0597 µM) | 0.05 mg/L (≈ 0.119 µM) | 0.025 mg/L (≈ 0.0597 µM) | 0.025 mg/L (≈ 0.0597 µM) | MIC [1, 23]: 0.2 mg/L (≈ 0.478 µM); MIC ([6]; Staphylococcus aureus): 0.39 mg/L (≈ 0.932 µM)
7 | CN1COc2c(N3CCN(CS(=O)(=O)O)CC3)c(F)cc3c(=O)c(C(=O)O)cn1c23 [Example 52, disodium 9-fluoro-3-methyl-7-oxo-10-[4-(sulfonatomethyl)-1-piperazinyl]-2,3-dihydro-7H-pyrido-[3,2,1-ij]-1,3,4-benzoxadiazine-6-carboxylate] | 0.2 mg/L | 1.56 mg/L | 25 mg/L | 0.2 mg/L | 6.25 mg/L | 0.025 mg/L | 0.025 mg/L | 1.56 mg/L | 0.2 mg/L | 0.2 mg/L | 1.56 mg/L | 3.13 mg/L | 0.05 mg/L | 0.2 mg/L | 12.5 mg/L | 0.05 mg/L | 0.025 mg/L | 0.05 mg/L | 0.025 mg/L | 0.025 mg/L | MIC ([1]; Staphylococcus aureus): 0.39 mg/L; MIC ([6]; Staphylococcus aureus): 0.39 mg/L
